In ChEMBL document CHEMBL1201862, “PubChem BioAssay data set” (2004):
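These data come from cells grown in 96-well plates and exposed to compound for 48 hours at five concentrations. The concentration for 50% growth inhibition is given as GI50.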 The source made the active and inactive calls. Rule as the data show it: active = GI50 up to about 1.1 µM and inactive = higher.

Columns and labels:
Assay in all cases: DTP human tumour cell line panel, 48 h
HCC 2998 = test system: HCC 2998
UACC-257 = test system: UACC-257
SK-MEL-2 = test system: SK-MEL-2
OVCAR-4 = test system: OVCAR-4
SNB-19 = test system: SNB-19
MDA-MB-435 = test system: MDA-MB-435
SF-268 = test system: SF-268
HCT-116 = test system: HCT-116
M14 = test system: M14
TK-10 = test system: TK-10
786-0 = test system: 786-0
Malme-3M = test system: Malme-3M
DU-145 = test system: DU-145
EKVX = test system: EKVX
HOP-62 = test system: HOP-62
RPMI-8226 = test system: RPMI-8226
NCI-H23 = test system: NCI-H23
UACC-62 = test system: UACC-62
RXF 393 = test system: RXF 393
HT-29 = test system: HT-29
OVCAR-3 = test system: OVCAR-3
NCI-H522 = test system: NCI-H522
NCI/ADR-RES = test system: NCI/ADR-RES
MOLT-4 = test system: MOLT-4
MCF7 = test system: MCF7
NCI-H226 = test system: NCI-H226
NCI-H460 = test system: NCI-H460
SF-539 = test system: SF-539
U-251 = test system: U-251
IGROV-1 = test system: IGROV-1
OVCAR-5 = test system: OVCAR-5
SK-MEL-28 = test system: SK-MEL-28
HL-60 = test system: HL-60
HOP-92 = test system: HOP-92
SNB-75 = test system: SNB-75
COLO 205 = test system: COLO 205
A498 = test system: A498
A549 = test system: A549
T47D = test system: T47D
HCT-15 = test system: HCT-15
ACHN = test system: ACHN
K562 = test system: K562
CAKI-1 = test system: CAKI-1
Hs-578T = test system: Hs-578T
PC-3 = test system: PC-3
BT-549 = test system: BT-549
SF-295 = test system: SF-295
SW-620 = test system: SW-620
CCRF-CEM = test system: CCRF-CEM
MDA-N = test system: MDA-N
SR = test system: SR
KM12 = test system: KM12
OVCAR-8 = test system: OVCAR-8
SK-OV-3 = test system: SK-OV-3
SN12C = test system: SN12C
UO-31 = test system: UO-31
SK-MEL-5 = test system: SK-MEL-5
MDA-MB-231 = test system: MDA-MB-231
LOX IMVI = test system: LOX IMVI

What does the source list for `O=C1N=NC(=O)N1c1cc(C(F)(F)F)cc(C(F)(F)F)c1`?
GI50 (HCC 2998): 3.45 µM (inactive); GI50 (UACC-257): 3.16 µM (inactive); GI50 (SK-MEL-2): 2.2 µM (inactive); GI50 (OVCAR-4): 4.21 µM (inactive); GI50 (SNB-19): 4.03 µM (inactive); GI50 (MDA-MB-435): 4.38 µM (inactive); GI50 (SF-268): 3.7 µM (inactive); GI50 (HCT-116): 3.24 µM (inactive); GI50 (M14): 5.7 µM (inactive); GI50 (TK-10): 3.68 µM (inactive); GI50 (786-0): 4.68 µM (inactive); GI50 (Malme-3M): 3.83 µM (inactive); GI50 (DU-145): 5.28 µM (inactive); GI50 (EKVX): 3.24 µM (inactive); GI50 (HOP-62): 4.17 µM (inactive); GI50 (RPMI-8226): 2.89 µM (inactive); GI50 (NCI-H23): 2.35 µM (inactive); GI50 (UACC-62): 5.65 µM (inactive); GI50 (RXF 393): 3.29 µM (inactive); GI50 (HT-29): 2.73 µM (inactive); GI50 (OVCAR-3): 2.44 µM (inactive); GI50 (NCI-H522): 2.07 µM (inactive); GI50 (NCI/ADR-RES): 2.97 µM (inactive); GI50 (MOLT-4): 3.37 µM (inactive); GI50 (MCF7): 3.35 µM (inactive); GI50 (NCI-H226): 2.55 µM (inactive); GI50 (NCI-H460): 3.23 µM (inactive); GI50 (SF-539): 4.86 µM (inactive); GI50 (U-251): 3.12 µM (inactive); GI50 (IGROV-1): 3.83 µM (inactive); GI50 (OVCAR-5): 4.09 µM (inactive); GI50 (SK-MEL-28): 10.6 µM (inactive); GI50 (HL-60): 3.61 µM (inactive); GI50 (HOP-92): 2.75 µM (inactive); GI50 (SNB-75): 2.95 µM (inactive); GI50 (COLO 205): 1.85 µM (inactive); GI50 (A498): 5.4 µM (inactive); GI50 (A549): 2.93 µM (inactive); GI50 (T47D): 3.61 µM (inactive); GI50 (HCT-15): 3.2 µM; GI50 (ACHN): 4.04 µM (inactive); GI50 (K562): 3.37 µM (inactive); GI50 (CAKI-1): 2.94 µM (inactive); GI50 (Hs-578T): 3.93 µM (inactive); GI50 (PC-3): 2.65 µM (inactive); GI50 (BT-549): 3.61 µM (inactive); GI50 (SF-295): 2.78 µM (inactive); GI50 (SW-620): 5.46 µM (inactive); GI50 (CCRF-CEM): 3.69 µM (inactive); GI50 (MDA-N): 4.17 µM (inactive); GI50 (SR): 4.69 µM (inactive); GI50 (KM12): 3.93 µM (inactive); GI50 (OVCAR-8): 3.38 µM (inactive); GI50 (SK-OV-3): 3.81 µM (inactive); GI50 (SN12C): 3.75 µM (inactive); GI50 (UO-31): 2.44 µM (inactive); GI50 (SK-MEL-5): 2.61 µM (inactive); GI50 (MDA-MB-231): 2.38 µM (inactive); GI50 (LOX IMVI): 3.27 µM (inactive)

With `CCOC(=O)C(NC(=O)c1ccccc1)(Nc1ccc(Cl)cc1C(F)(F)F)C(F)(F)F` (configuration not stated) as the compound, how does the GI50 (HCC 2998) read?
Its GI50 is > 28.3 µM (inactive).

And the GI50 (UACC-257)?
Its GI50 is 9.64 µM (inactive).

What about the GI50 (SK-MEL-2) of the same compound?
The GI50 was 4.74 µM (inactive).

And the GI50 (OVCAR-4)?
Its GI50 is 9.77 µM (inactive).

And the GI50 (SNB-19)?
Its GI50 is 5.48 µM (inactive).

What about the GI50 (MDA-MB-435) of the same compound?
The GI50 was 1.26 µM (inactive).

And the GI50 (SF-268)?
Its GI50 is > 37.4 µM (inactive).

What about the GI50 (HCT-116) of the same compound?
Its GI50 is 3.78 µM (inactive).

What about the GI50 (M14) of the same compound?
Its GI50 is 4.13 µM (inactive).

What about the GI50 (TK-10) of the same compound?
Its GI50 is 8.26 µM (inactive).

What about the GI50 (786-0) of the same compound?
The GI50 was 8.95 µM (inactive).

What about the GI50 (Malme-3M) of the same compound?
Its GI50 is 3.37 µM (inactive).

And the GI50 (DU-145)?
Its GI50 is 12.9 µM (inactive).

What about the GI50 (EKVX) of the same compound?
The GI50 was 5.6 µM (inactive).

What about the GI50 (HOP-62) of the same compound?
The GI50 was 3.91 µM (inactive).

And the GI50 (RPMI-8226)?
Its GI50 is 2.96 µM (inactive).

What about the GI50 (NCI-H23) of the same compound?
Its GI50 is 4.59 µM (inactive).

And the GI50 (UACC-62)?
The GI50 was 5.3 µM (inactive).

What about the GI50 (RXF 393) of the same compound?
The GI50 was 3.44 µM (inactive).

What about the GI50 (HT-29) of the same compound?
Its GI50 is 2.15 µM (inactive).

And the GI50 (OVCAR-3)?
The GI50 was 3.57 µM (inactive).

And the GI50 (NCI-H522)?
The GI50 was 2.59 µM (inactive).

What about the GI50 (NCI/ADR-RES) of the same compound?
Its GI50 is 2.76 µM (inactive).

What about the GI50 (MOLT-4) of the same compound?
The GI50 was 2.55 µM (inactive).

What about the GI50 (MCF7) of the same compound?
Its GI50 is 4.83 µM (inactive).

And the GI50 (NCI-H226)?
The GI50 was 16.7 µM (inactive).

And the GI50 (NCI-H460)?
Its GI50 is > 20.5 µM (inactive).

And the GI50 (SF-539)?
The GI50 was 5.71 µM (inactive).

What about the GI50 (U-251) of the same compound?
The GI50 was 3.74 µM (inactive).

And the GI50 (IGROV-1)?
Its GI50 is 4.03 µM (inactive).

What about the GI50 (OVCAR-5) of the same compound?
Its GI50 is 13.5 µM (inactive).

What about the GI50 (SK-MEL-28) of the same compound?
The GI50 was 6.97 µM (inactive).

And the GI50 (HL-60)?
Its GI50 is 1.98 µM (inactive).

What about the GI50 (HOP-92) of the same compound?
The GI50 was 4.99 µM (inactive).

And the GI50 (SNB-75)?
The GI50 was 2.29 µM (inactive).

And the GI50 (COLO 205)?
The GI50 was 4.58 µM (inactive).

What about the GI50 (A498) of the same compound?
The GI50 was 6.05 µM (inactive).

What about the GI50 (A549) of the same compound?
The GI50 was 4.59 µM (inactive).

What about the GI50 (T47D) of the same compound?
The GI50 was 4.39 µM (inactive).

And the GI50 (ACHN)?
Its GI50 is 9.42 µM (inactive).

What about the GI50 (K562) of the same compound?
Its GI50 is 2.47 µM (inactive).

And the GI50 (CAKI-1)?
The GI50 was 7.5 µM (inactive).

And the GI50 (Hs-578T)?
The GI50 was 39.3 µM (inactive).

What about the GI50 (PC-3) of the same compound?
The GI50 was 3.13 µM (inactive).

And the GI50 (BT-549)?
Its GI50 is 6.37 µM (inactive).

And the GI50 (SF-295)?
The GI50 was 4.03 µM (inactive).

What about the GI50 (SW-620) of the same compound?
The GI50 was 2.88 µM (inactive).

What about the GI50 (CCRF-CEM) of the same compound?
Its GI50 is 1.7 µM (inactive).

And the GI50 (MDA-N)?
The GI50 was 1.51 µM (inactive).

And the GI50 (SR)?
Its GI50 is 2.28 µM (inactive).

What about the GI50 (KM12) of the same compound?
Its GI50 is 1.42 µM (inactive).

And the GI50 (OVCAR-8)?
Its GI50 is 5.36 µM (inactive).

What about the GI50 (SK-OV-3) of the same compound?
The GI50 was 9.4 µM (inactive).

What about the GI50 (SN12C) of the same compound?
Its GI50 is 4.45 µM (inactive).

And the GI50 (UO-31)?
Its GI50 is 5.21 µM (inactive).

What about the GI50 (SK-MEL-5) of the same compound?
Its GI50 is 4.91 µM (inactive).

And the GI50 (MDA-MB-231)?
The GI50 was 6.31 µM (inactive).

And the GI50 (LOX IMVI)?
The GI50 was 5.33 µM (inactive).
